These results are taken from article PMC8036603, “Small Molecule Inhibitors of White Spot Syndrome Virus: Promise in Shrimp Seedling Culture” (International Journal of Molecular Sciences, 2021).

Where two headings read alike, the source gives them in different places.

In series [1] the test system is white spot syndrome virus (WSSV). Briefly: Anti-WSSV activity in shrimp larvae, co-incubation, copy number of viral genome by RT-qPCR. Type of series: in vivo, Litopenaeus vannamei. The conditions noted are these: for EC50: Whispovirus xiabaidian, 72 h, read-out: EC50 (mg/L; 95% CI), median effective concentration, WSSV-infected larvae, copy number of viral genome, 95% CI in brackets; for inhibitory efficiency on WSSV replication: six-point dose-response, viral genome copy number in larvae. For orientation: Real-time PCR tracks product formation cycle by cycle.

A short description of series [2]: Solubility / precipitation in aquacultural water. To be noted: for lowest precipitation concentration / lowest precipitation concentration (bracketed value in LC50 48 h column) / lowest precipitation concentration (bracketed value in LC50 72 h column): test range 0.4~100 mg/L, aquacultural water, LC50 NONE. Type of series: physicochemical. How it is done:
Prior to evaluation of the anti-WSSV activity of coumarins, the safety doses for larvae needed to be determined. […] In contrast, the electron-withdrawing group was more toxic than the electron-donating group, with the LC50 of A5‒A8 being <5 mg/L at 72 h. […] Based on preliminary analysis of the structure-activity relationship (SAR) of similar spatial structures with different substituents of electron-donating and electron-withdrawing groups to coumarins A1, B1, and C1, we considered that […] of compounds; this provides a basis for further research.
All conventional reagents and solvents are purchased directly from commercial companies and no further purification is required. Organic solvents were purchased from Sinopharm chemical reagent Co., Ltd. and purified by distillation and moisture was excluded from the glass apparatus using CaCl2 drying tubes. Throughout this study, silica gel H (200–300 mesh; Qingdao Marine Chemical Factory, Qingdao, China) was used for the column chromatography. For thin layer chromatographic (TLC) plates, Silica gel (GF254) (Qingdao Marine Chemical Factory, Qingdao, China) were used for thin layer chromatographic (TLC) analysis, and all of the spots and bands were detected by UV irradiation (254, 365 nm). The intermediates and products were characterized by electrospray ionization mass spectrometry (TripleTOF5600þ; AB SCIEX Pte. Ltd., Boston, MA, USA), ^1H NMR and ^13C NMR (Bruker AM500 spectrometer; Bruker Corporation, Berne, Switzerland). The derivatives were dissolved in 100% dimethyl sulfoxide (DMSO; Beyotime Biotechnology, Haimen, China), stored at 4 °C prior to antiviral evaluation, and used within 6 months. For solubility, the stock solutions, at a concentration of 50 mg/mL, were sonicated for approximately 10 min to ensure that the derivatives were fully dissolved and mixed.

Series [3] concerns Shrimp (L. vannamei) larvae. Briefly: Acute toxicity assay in shrimp larvae. Type of series: in vivo, Litopenaeus vannamei. The conditions noted are these: after 72 h of exposure. How it is done:
Shrimp (L. vannamei) larvae (total length: 0.5 ± 0.04 cm, body weight: 4.2 ± 0.4 mg, mean ± SD) were provided by Zhejiang Mariculture Research Institute Qingjiang Station (Wenzhou, China). The larvae were maintained in a culture pond at 28 °C, fed four times a day with commercial feed pellets, and collected randomly for PCR testing to verify the WSSV-free status prior to the trial.
Acute toxicity of the coumarin derivatives was investigated by exposing larvae to a range of compound concentrations, from 0.1 mg/L to 100 mg/L of coumarin derivatives, where the dose setting was based on the data from preliminary tests in our laboratory. A DMSO-control (2%, v/v, the highest percentage of DMSO in treatments) served as the control. During the experiment, every 20 larvae were moved into six-well plates filled with 6 mL/per well freshly prepared test solutions for a 72-h incubation at 28 °C with a natural photoperiod. […] To avoid deterioration of water quality, dead shrimps were immediately removed at the point of observation. Three replicate experiments were performed.
Compound response curves were represented by a logistic sigmoidal function with a maximal effect level (Amax) and Hill coefficient representing the sigmoidal transition (Origin 8.1; http://www.originlab.com, accessed on 25 March 2021). Statistical analyses were performed using SPSS (version 18.0) statistical software (SPSS Inc., Chicago, IL, USA). The LC50 and EC50 values with 95% CIs were calculated using probit analysis. Virus titers were log10-transformed prior to statistical analyses. Unpaired Student’s t-tests were used to compare coumarin-treated samples and negative-control DMSO samples for determining significance and data are presented as mean values ± SD.

The test system of series [4] is white spot syndrome virus (WSSV). To be noted: cited from earlier work.

Take `O=C1Nc2c(c(=O)oc3ccccc23)C(c2ccc(O)cc2)N1` (stereo not drawn) [A4, 4-(4-hydroxyphenyl)-3,4-dihydro-2H-chromeno[4,3-d]pyrimidine-2,5(1H)-dione]: in series [1], the EC50 stood at 21.7 mg/L and the “inhibitory efficiency on WSSV replication” value (from here on “inhibitory efficiency”) is reported as “exceeded 90%”. Besides, in series [2], the “lowest precipitation concentration” value was “NONE (50) mg/L”, the “lowest precipitation concentration (bracketed value in LC50 48 h column)” value is “NONE (50) mg/L” and the “lowest precipitation concentration (bracketed value in LC50 72 h column)” value is “NONE (50) mg/L”.

As for `O=c1oc2ccccc2c2c1C(c1ccc(O)cc1)NC(=S)N2` (stereo not drawn) [B4, 4-(4-hydroxyphenyl)-2-thioxo-1,2,3,4-tetrahydro-5H-chromeno[4,3-d]pyrimidin-5-one], in series [1], the EC50 was determined as 22.6 mg/L and the “inhibitory efficiency” value is “exceeded 90%”. In addition, in series [2], the “lowest precipitation concentration” value was “NONE (50) mg/L”, the “lowest precipitation concentration (bracketed value in LC50 48 h column)” value was “NONE (50) mg/L” and the “lowest precipitation concentration (bracketed value in LC50 72 h column)” value is recorded as “NONE (50) mg/L”.

On to `N#CC1=C(N)Oc2c(c(=O)oc3ccccc23)C1c1ccc(F)cc1` (stereo not drawn) [C5], for which, in series [3], the “signs of toxicity at the saturation concentration” value was “No signs of toxicity were observed”. For the same compound, in series [1], the EC50 was found to be 8.82 mg/L and the “inhibitory efficiency” value is on record as “exceeded 90%”. For the same compound, in series [2], the “lowest precipitation concentration” value was “NONE (16) mg/L”, the “lowest precipitation concentration (bracketed value in LC50 48 h column)” value is listed as “NONE (16) mg/L” and the “lowest precipitation concentration (bracketed value in LC50 72 h column)” value was “NONE (16) mg/L”. For the same compound, the “solubility in aquacultural water” value in series [2] (tested concentration 16 mg/L, 28 °C) is reported as “insoluble”.

Take `N#CC1=C(N)Oc2c(c(=O)oc3ccccc23)C1c1ccc([N+](=O)[O-])cc1` (stereo not drawn) [C8]: in series [3], the “signs of toxicity at the saturation concentration” value is reported as “No signs of toxicity were observed”. In series [1], the EC50 is 6.6 mg/L and the “inhibitory efficiency” value is reported as “exceeded 90%”. For the same compound, in series [2], the “solubility in aquacultural water” value was “insoluble”, the “lowest precipitation concentration” value is reported as “NONE (16) mg/L”, the “lowest precipitation concentration (bracketed value in LC50 48 h column)” value is recorded as “NONE (16) mg/L” and the “lowest precipitation concentration (bracketed value in LC50 72 h column)” value is “NONE (16) mg/L”. In addition, the “half-life in aquacultural and sterilized deionized water” value in series [4] (buffer) was 24 to 48 h.

Turning to `C=CCN1C(=O)/C(=C/c2ccc(-c3ccccc3)o2)SC1=S` [LJ001], in series [4], the “half-life in aquaculture water” value is “less than 2 days”.

For `C=CCN1C(=O)S/C(=C\c2ccc(-c3ccccc3)o2)C1=O` [LJ025], the “half-life in aquaculture water” value in series [4] is on record as “less than 2 days”.
